{"source": "patent EP0503710A2", "about": "“Flunarizine containing anti-neoplastic compositions” (JANSSEN PHARMACEUTICA N.V., priority 1991, dated 1992)", "key": {"[1]": {"tested_on": "murine sarcoma MO4 (semi-resistant cell line)", "test": "Subrenal capsule implant of MO4 tumour fragments in mice, change in tumor size at day 7", "assay_type": "in vivo", "details": "daily intraperitoneal day 1 until day 6", "source_text": "(§1) The potential of flunarizine as a potent enhancer of adriamycine (ADR) cytotoxicity in the murine sarcoma MO4 (semi-resistant cell line) \"in vitro\" and \"in vivo\" and its reversed adriamycine resistance in the P388/ADR (adriamycine resistant cell line) murine leukemia \"in vivo\"can be demostrated by the following procedure.\n(§2) Fragments of subcutaneously grown tumours were inserted under the renal capsule in mice and their initial size measured under a microscope. At day 7, the mice were killed and the final size of the implants determined. The change in tumor size was expressed as a percentage of the initial size, the latter considered to be 100%. Daily intraperitoneal treatment with ADR alone or in combination with flunarizine which was formulated in hydroxypropyl-β-cyclodextrin was installed from day 1 until day 6. Control animals received the vehicle hydroxypropyl-ß-cyclodextrin."}, "[2]": {"tested_on": "P388/ADR (adriamycine resistant cell line) murine leukemia", "test": "Subrenal capsule implant of P388/ADR tumour fragments in mice, change in tumor size at day 7", "assay_type": "in vivo", "details": "P388/ADR implants under renal capsule, monotherapy, daily intraperitoneal day 1 until day 6", "source_text": "as §1, §2"}}, "data": [{"smiles": "Fc1ccc(C(c2ccc(F)cc2)N2CCN(CC=Cc3ccccc3)CC2)cc1", "note": "[Flunarizine, 1-[bis(4-fluorophenyl)methyl]-4-(3-phenyl-2-propenyl)piperazine]", "values": [{"measurement": "effect on tumor growth", "setting": "[1]; MO4 implants under renal capsule, flunarizine monotherapy in hydroxypropyl-β-cyclodextrin, size at day 7", "value": "no effect"}, {"measurement": "effect on tumor growth", "setting": "[2]", "value": "no effect"}]}, {"smiles": "COc1cccc2c1C(=O)c1c(O)c3c(c(O)c1C2=O)C[C@@](O)(C(=O)CO)C[C@@H]3O[C@H]1C[C@H](N)[C@H](O)[C@H](C)O1", "note": "[adriamycine]", "values": [{"measurement": "effect on tumor growth", "setting": "[1]; MO4-tumor, adriamycine alone, dosages lower than 2.5 mg/kg", "value": "no effect"}, {"measurement": "growth reduction", "setting": "[1]; MO4-tumor, adriamycine alone, half the maximal tolerated dose 2.5 mg/kg", "value": 25, "unit": "%"}, {"measurement": "effect on tumor growth", "setting": "[2]", "value": "inactive"}]}]}
